This passage reports Activity and IC50 results from ChEMBL document CHEMBL1275472, “Cell-penetrating peptide TP10 shows broad-spectrum activity against both Plasmodium falciparum and Trypanosoma brucei brucei” (Antimicrob Agents Chemother, 2008).

pIC50: −log10 of the molar value. Activity calls are given as the source filed them. The calls are words filed in the database; no cut-off is given here.

For data set [1], the system named is Plasmodium falciparum. Nature of the data set: Antiplasmodial activity against asynchronous blood-stage Plasmodium falciparum HB3 infected in human RBC at 30 uM after 24 hrs by Malstat assay. It is filed as functional, organism-based.
Data set [2] concerns Plasmodium falciparum. Nature of the data set: Antiplasmodial activity against Plasmodium falciparum 3D7 clone infected in Anopheles gambiae Keele vector assessed as prevalence of […] infection at 30 uM. It is filed as functional.
The test system of data set [3] is Plasmodium falciparum. Nature of the data set: Antiplasmodial activity against asynchronous blood-stage Plasmodium falciparum HB3 infected in human RBC at 30 uM after 24 hrs by microscopy. In kind it is functional, organism-based.
The test system of data set [4] is Plasmodium falciparum. Nature of the data set: Antiplasmodial activity against asynchronous blood-stage Plasmodium falciparum HB3 infected in human RBC at 30 uM after 15 hrs by Malstat assay. In kind it is functional, organism-based.
Data set [5] relates to Trypanosoma brucei brucei. Briefly: […] activity against bloodstream form of Trypanosoma brucei 427. It is filed as functional, organism-based.
Data set [6] deals with Trypanosoma brucei brucei. Nature of the data set: Trypanocidal activity against bloodstream form of Trypanosoma brucei brucei 427 assessed as lysis half-time at 5.4 uM by alamar blue assay. In kind it is functional, organism-based. Background: Resazurin is reduced to fluorescent resorufin, in cell work by metabolically active cells.
Data set [7] relates to Plasmodium falciparum. Briefly: Antiplasmodial activity against asynchronous blood-stage Plasmodium falciparum HB3 infected in human RBC at 30 uM after 18 hrs by Malstat assay. It is filed as functional, organism-based.
The species entered for the next data set is Homo sapiens. Briefly: Toxicity in human RBC assessed as induction of hemolysis at 1 to 30 uM.
For data set [8], the system named is Plasmodium falciparum. Briefly: Antiplasmodial activity against asynchronous blood-stage Plasmodium falciparum HB3 infected in human RBC at 30 uM after 21 hrs by Malstat assay. In kind it is functional, organism-based.

On to H-LLIILRRRIRKQAHAHSK-OH, for which the result with Plasmodium falciparum [1] and in the data set on Plasmodium falciparum [3] was inactive. In the data set on Plasmodium falciparum [2], the Activity came out at 44%.
One may read the pIC50 as the negative decadic logarithm of the IC50, by convention in mol/L. Read a high pIC50 as a low IC50. For `CC[C@H](C)[C@H](NC(=O)[C@H](CCCCN)NC(=O)[C@H](CCCCN)NC(=O)[C@H](C)NC(=O)[C@H](CC(C)C)NC(=O)[C@H](C)NC(=O)[C@H](C)NC(=O)[C@H](CC(C)C)NC(=O)[C@H](C)NC(=O)[C@H](CCCCN)NC(=O)[C@H](CC(C)C)NC(=O)[C@H](CC(N)=O)NC(=O)[C@@H](NC(=O)[C@H](CCCCN)NC(=O)CNC(=O)[C@H](CC(C)C)NC(=O)[C@H](CC(C)C)NC(=O)[C@H](Cc1ccc(O)cc1)NC(=O)CNC(=O)[C@H](C)N)[C@@H](C)CC)C(=O)N[C@@H](CC(C)C)C(=O)O`, the result (in the data set on Plasmodium falciparum [1]; with Plasmodium falciparum [4]; in data set [6]; in the data set with Plasmodium falciparum [3]; in the data set with Plasmodium falciparum [7]; in the data set on Plasmodium falciparum [8]) was Active. In addition, the Activity is 30% in the data set on Plasmodium falciparum [2] and “Non-toxic” in the data set listed under Homo sapiens. In addition, the pIC50 in data set [5] was 5.57.
